# Where a name gives a salt, the structure may show the parent alone. Read-outs that look alike come from different tables or passages of the source.
# Key:
# [1] = tested on: NCI-H292 lung cancer cells; assay: FDA drug screening, complete media vs cholesterol-free media without statin (TABLE 1); assay type: cell-based, human
# [2] = tested on: NCI-H292 lung cancer cells; assay: FDA drug screening, complete media vs cholesterol-free media with simvastatin (TABLE 2); assay type: cell-based, human
# [3] = Complete minus Cholesterol-free, >0 enhanced anti-cancer activity, about 0 neutral, <0 antagonist
# [4] = NCI-H292 cells, cholesterol-free media without statin, FDA drug library screen
# [5] = NCI-H292 cells, complete media, FDA drug library screen
# [6] = NCI-H292 cells, FDA drug library screen, cholesterol-free media with simvastatin 0.04 μM
# [7] = NCI-H292 cells, FDA drug library screen, complete media
# [8] = complete media minus cholesterol-free media + simvastatin, >0 enhanced anti-cancer activity, about 0 neutral, <0 antagonist
# [9] = NCI-H292 cells, cholesterol-free media without statin
# [10] = complete vs cholesterol-free media, greater than 0 enhanced anti-cancer activity, about 0 neutral, below 0 antagonists
# [11] = NCI-H292 cells, drug in cholesterol-free media with simvastatin 0.04 μM
# [12] = NCI-H292 cells, drug in complete media
# [13] = complete media vs cholesterol-free media + simvastatin (0.04 μM), >0 enhanced anti-cancer activity, about 0 neutral, <0 antagonist
# [14] = Complete minus Cholesterol-free, greater than 0 enhanced anti-cancer activity, about 0 neutral, below 0 antagonists
# [15] = NCI-H292 cells in cholesterol-free media without statin
# [16] = NCI-H292 cells in complete media
# [17] = NCI-H292 cells, cholesterol-free media with simvastatin 0.04 μM, FDA drug library screen (TABLE 2)
# [18] = NCI-H292 cells, complete media, FDA drug library screen (TABLE 2)
# [19] = complete media minus cholesterol-free media + simvastatin (0.04 μM), >0 enhanced anti-cancer activity, about 0 neutral, <0 antagonist
# [20] = Complete minus Cholesterol-free, […]
# [21] = NCI-H292 cells, FDA drug library screen, cholesterol-free media without statin
# [22] = NCI-H292 cells, FDA library drug in cholesterol-free media with simvastatin 0.04 μM
# [23] = complete media vs cholesterol-free media + simvastatin (0.04 μM), […]
# [24] = NCI-H292 cells, cholesterol-free media with simvastatin 0.04 μM, cell growth value in FDA drug screen
# [25] = NCI-H292 cells, complete media, cell growth value in FDA drug screen
# [26] = Complete minus Cholesterol-free, greater than 0 enhanced anti-cancer activity, about 0 neutral, below 0 antagonist
molecule,measurement,setting,value
Nc1c2ccccc2nc2ccccc12 [9-Aminoacridine],Difference,[1]; [3],−0.03
same,Cholesterol-free,[1]; [4],0.5968
same,Complete,[1]; [5],0.5645
same,Cholesterol-free media + simvastatin (0.04 μM),[2]; [6],0.3257
same,Complete Media,[2]; [7],0.5257
same,Difference,[2]; [8],0.20
Garenoxacin (Mesylate hydrate),Cholesterol-free,[1]; [9],1.769
same,Complete,"[1]; NCI-H292 cells, complete media",1.3
same,Difference,[1]; [10],−0.47
same,Cholesterol-free media + simvastatin (0.04 μM),[2]; [11],1.436
same,Complete Media,[2]; [12],1.268
same,Difference,[2]; [13],−0.17
Cc1cc(C)nc(NS(=O)(=O)c2ccc(N)cc2)n1 [Sulfamethazine],Difference,[1]; [14],−0.77
same,Cholesterol-free,[1]; [15],1.661
same,Complete,[1]; [16],0.8945
same,Cholesterol-free media + simvastatin (0.04 μM),[2]; [6],1.21
same,Complete Media,[2]; [7],1.052
same,Difference,[2]; [13],−0.16
Cc1nc2ccc(CN(C)c3ccc(C(=O)N[C@@H](CCC(=O)O)C(=O)O)s3)cc2c(=O)[nH]1 [Raltitrexed],Difference,[1]; [3],−0.24
same,Cholesterol-free,[1]; [9],0.3503
same,Complete,"[1]; NCI-H292 cells, complete media",0.1117
same,Cholesterol-free media + simvastatin (0.04 μM),[2]; [17],0.1121
same,Complete Media,[2]; [18],0.0907
same,Difference,[2]; [19],−0.02
Pixantrone (dimaleate),Cholesterol-free,[1]; [9],1.33
same,Complete,"[1]; NCI-H292 cells, complete media",0.8848
same,Difference,[1]; [10],−0.45
same,Cholesterol-free media + simvastatin (0.04 μM),[2]; [6],1.334
same,Complete Media,[2]; [7],1.212
same,Difference,[2]; [13],−0.12
Almotriptan (malate),Difference,[1]; [20],−0.08
same,Cholesterol-free,[1]; [21],0.8422
same,Complete,[1]; [7],0.7605
same,Cholesterol-free media + simvastatin (0.04 μM),[2]; [22],1.642
same,Difference,[2]; [23],−0.54
CCCC(CCC)C(=O)O [Valproic acid],Difference,[1]; [3],−0.29
same,Cholesterol-free,[1]; [9],0.957
same,Complete,"[1]; NCI-H292 cells, complete media",0.6641
same,Cholesterol-free media + simvastatin (0.04 μM),[2]; [11],1.017
same,Complete Media,[2]; [12],0.7948
same,Difference,[2]; [13],−0.22
CN[C@H](CC(C)C)C(=O)N[C@H]1C(=O)N[C@@H](CC(N)=O)C(=O)N[C@H]2C(=O)N[C@H]3C(=O)N[C@H](C(=O)N[C@H](C(=O)O)c4cc(O)cc(O)c4-c4cc3ccc4O)[C@H](O)c3ccc(c(Cl)c3)Oc3cc2cc(c3O[C@@H]2O[C@H](CO)[C@@H](O)[C@H](O)[C@H]2O[C@H]2C[C@](C)(N)[C@H](O)[C@H](C)O2)Oc2ccc(cc2Cl)[C@H]1O [Vancomycin (hydrochloride)],Cholesterol-free,[1],0.8305
same,Complete,[1],0.7537
same,Difference,[1],−0.08
same,Cholesterol-free media + simvastatin (0.04 μM),[2],0.8152
same,Complete Media,[2],0.7422
same,Difference,[2],−0.07
CC(C)N(CCCCOCC(=O)NS(C)(=O)=O)c1cnc(-c2ccccc2)c(-c2ccccc2)n1 [Selexipag],Cholesterol-free,[1]; [4],0.7206
same,Complete,[1]; [5],1.028
same,Difference,"[1]; complete vs cholesterol-free media, >0 enhanced anti-cancer activity, about 0 neutral, <0 antagonist",0.31
same,Cholesterol-free media + simvastatin (0.04 μM),[2]; [24],0.9295
same,Complete Media,[2]; [25],1.013
same,Difference,[2]; [8],0.08
Estradiol (cypionate),Difference,[1]; [20],−0.22
same,Cholesterol-free,[1]; [9],1.127
same,Complete,"[1]; NCI-H292 cells, complete media",0.9066
same,Cholesterol-free media + simvastatin (0.04 μM),[2]; [6],0.9809
same,Complete Media,[2]; [7],0.8945
same,Difference,[2]; [23],−0.09
CCOC(=O)c1c(N)sc2c1CCN(Cc1ccccc1)C2 [Tinoridine hydrochloride],Difference,[1]; [26],−0.11
same,Cholesterol-free,[1]; [21],1.153
same,Complete,[1]; [7],1.039
same,Cholesterol-free media + simvastatin (0.04 μM),[2]; [24],1.034
same,Complete Media,[2]; [25],1.059
same,Difference,[2]; [8],0.03
Cc1c(O)c(=O)ccn1C [Deferiprone],Cholesterol-free,[1]; [9],1.443
same,Complete,"[1]; NCI-H292 cells, complete media",1.044
same,Difference,[1]; [10],−0.40
same,Cholesterol-free media + simvastatin (0.04 μM),[2]; [17],1.047
same,Complete Media,[2]; [18],1.061
same,Difference,[2]; [19],0.01
COC(=O)N(C)c1c(N)nc(-c2nn(Cc3ccccc3F)c3ncccc23)nc1N [Riociguat],Difference,[1]; [3],−0.22
same,Cholesterol-free,[1]; [9],0.9238
same,Complete,"[1]; NCI-H292 cells, complete media",0.7003
same,Cholesterol-free media + simvastatin (0.04 μM),[2]; [24],1.101
same,Complete Media,[2]; [25],1.185
same,Difference,[2]; [8],0.08
CCCCC1C(=O)N(c2ccccc2)N(c2ccc(O)cc2)C1=O (stereo not drawn) [Oxyphenbutazone],Difference,[1]; [26],−0.11
same,Cholesterol-free,[1]; [21],1.282
same,Cholesterol-free media + simvastatin (0.04 μM),[2]; [22],1.844
same,Complete Media,"[2]; NCI-H292 cells, FDA library drug in complete media",1.056
same,Difference,[2]; [13],−0.79
CC1=C(CC(=O)O)c2cc(F)ccc2/C1=C\c1ccc([S+](C)[O-])cc1 (stereo not drawn) [Sulindac],Difference,[1]; [14],−0.48
same,Cholesterol-free,[1]; [15],1.336
same,Complete,[1]; [16],0.8519
same,Cholesterol-free media + simvastatin (0.04 μM),[2]; [17],1.193
same,Difference,[2]; [19],−0.02

# — patent US20250144067A1, “PERSONALIZED STARVATION THERAPY FOR CANCER” (Faeth Therapeutics, Inc., priority 2021, published 2025)
